Experimental data: ChEMBL document CHEMBL1137072, “Peptide deformylase inhibitors with activity against respiratory tract pathogens” (Bioorg Med Chem Lett, 2004)
In brackets after ≈: the same amount, converted by molar mass. Several values for one entry are separate records, joined by “and”; a condition that tells them apart may be missing. Equal values may be shown once.

Legend:
Peptide deformylase = target: T1, Peptide deformylase (Escherichia coli, UniProt Q9JN24); assay: Inhibitory activity against Escherichia coli peptide deformylase (PDF) Nickel containing enzyme
T1 sequence (Q9JN24 whole entry): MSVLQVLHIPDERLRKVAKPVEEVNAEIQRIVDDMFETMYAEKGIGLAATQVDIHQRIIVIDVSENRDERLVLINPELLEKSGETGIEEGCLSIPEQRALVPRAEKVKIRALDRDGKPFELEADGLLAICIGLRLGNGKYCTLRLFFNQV

Haemophilus influenzae [1] = assay: Minimum inhibitory concentration required for primary screening against in-house strain of Haemophilus influenzae tested in vitro; Range- 0.25-2; format: functional
Moraxella catarrhalis [2] = assay: Minimum inhibitory concentration required for primary screening against in-house strain of Moraxella catarrhalis tested in vitro; format: functional
Streptococcus pneumoniae [3] = assay: Minimum inhibitory concentration required for primary screening against in-house strain of Streptococcus pneumoniae tested in vitro; Range- <0.125-0.25; format: functional
Haemophilus influenzae [4] = assay: Minimum inhibitory concentration required for primary screening against in-house strain of Haemophilus influenzae tested in vitro; Range- 0.12-16; format: functional
Moraxella catarrhalis [5] = assay: Minimum inhibitory concentration required for primary screening against in-house strain of Moraxella catarrhalis tested in vitro; Range- 0.008-0.12; format: functional
Streptococcus pneumoniae [6] = assay: Minimum inhibitory concentration required for primary screening against in-house strain of Streptococcus pneumoniae tested in vitro; Range- 0.008-1; format: functional
Streptococcus pneumoniae [7] = assay: Minimum inhibitory concentration required for primary screening against in-house strain of Streptococcus pneumoniae tested in vitro; Range- 0.5-1; format: functional
Haemophilus influenzae [8] = assay: Minimum inhibitory concentration required for primary screening against in-house strain of Haemophilus influenzae tested in vitro; Range- 0.5-2; format: functional
Streptococcus pneumoniae [9] = assay: Minimum inhibitory concentration required for primary screening against in-house strain of Streptococcus pneumoniae tested in vitro; Range- 0.25-0.5; format: functional
Staphylococcus capitis = assay: Minimum inhibitory concentration required for primary screening against in-house strain of Staphylococcus capitis tested in vitro; format: functional
Streptococcus pneumoniae [10] = assay: Minimum inhibitory concentration required for primary screening against in-house strain of Streptococcus pneumoniae tested in vitro; format: functional
Haemophilus influenzae [11] = assay: Minimum inhibitory concentration required for primary screening against in-house strain of Haemophilus influenzae tested in vitro; Range- 0.5-4; format: functional
Moraxella catarrhalis [12] = assay: Minimum inhibitory concentration required for primary screening against in-house strain of Moraxella catarrhalis tested in vitro; Range = 0.125-0.25; format: functional
Haemophilus influenzae [13] = assay: Minimum inhibitory concentration required for primary screening against in-house strain of Haemophilus influenzae tested in vitro; Range- 2-4; format: functional
Moraxella catarrhalis [14] = assay: Minimum inhibitory concentration required for primary screening against in-house strain of Moraxella catarrhalis tested in vitro; Range- 0.125-0.25; format: functional
Streptococcus pneumoniae [15] = assay: Minimum inhibitory concentration required for primary screening against in-house strain of Streptococcus pneumoniae tested in vitro; Range- 0.25-1; format: functional
Haemophilus influenzae [16] = assay: Minimum inhibitory concentration required for primary screening against in-house strain of Haemophilus influenzae tested in vitro; Range- 0.125-2; format: functional
Escherichia coli = assay: Minimum inhibitory concentration required for primary screening against in-house strain of Escherichia coli tested in vitro; format: functional
Haemophilus influenzae [17] = assay: Minimum inhibitory concentration required for primary screening against in-house strain of Haemophilus influenzae tested in vitro; Range- 0.06->/=16; format: functional
Moraxella catarrhalis [18] = assay: Minimum inhibitory concentration required for primary screening against in-house strain of Moraxella catarrhalis tested in vitro; Range- 0.015-0.12; format: functional
Streptococcus pneumoniae [19] = assay: Minimum inhibitory concentration required for primary screening against in-house strain of Streptococcus pneumoniae tested in vitro; Range- 0.25-2; format: functional
Haemophilus influenzae [20] = assay: Minimum inhibitory concentration required for primary screening against in-house strain of Haemophilus influenzae tested in vitro; Range- 0.5-1; format: functional
Haemophilus influenzae [21] = assay: Minimum inhibitory concentration required for primary screening against in-house strain of Haemophilus influenzae tested in vitro; Range- 0.125-4; format: functional
Streptococcus pneumoniae [22] = assay: Minimum inhibitory concentration required for primary screening against in-house strain of Streptococcus pneumoniae tested in vitro; Range- 0.25-0.5
Moraxella catarrhalis [23] = assay: Minimum inhibitory concentration required for primary screening against in-house strain of Moraxella catarrhalis tested in vitro; Range = 0.015-0.12; format: functional
Streptococcus pneumoniae [24] = assay: Minimum inhibitory concentration required for primary screening against in-house strain of Streptococcus pneumoniae tested in vitro; Range- 2->8; format: functional
Haemophilus influenzae [25] = assay: Minimum inhibitory concentration required for primary screening against in-house strain of Haemophilus influenzae tested in vitro; Range- 0.06-8; format: functional
Haemophilus influenzae [26] = assay: microbe, parasite or virus in culture
Description: Minimum inhibitory concentration required for primary screening against in-house strain of Haemophilus influenzae tested in vitro; Range- 0.004-1

Moraxella catarrhalis [27] = assay: microbe, parasite or virus in culture
Streptococcus pneumoniae [28] = assay: microbe, parasite or virus in culture
Description: Minimum inhibitory concentration required for primary screening against in-house strain of Streptococcus pneumoniae tested in vitro; Range- 0.2-128

Streptococcus pneumoniae [29] = assay: Minimum inhibitory concentration required for primary screening against in-house strain of Streptococcus pneumoniae tested in vitro; Range-0.008-2; format: functional

Work on CCCC[C@H](CN(O)C=O)C(=O)N[C@H](C(=O)c1ccc(N2CCOCC2)cc1)C(C)(C)C yielded an IC50 (Peptide deformylase) of 5 nM.
CC(C)(C)[C@H](NC(=O)[C@H](CC1CCCC1)CN(O)C=O)C(=O)c1ccc(N2CCC[C@H]2CO)cc1 was tested, and the MIC (Haemophilus influenzae [1]) was < 2 µg/mL, the MIC (Moraxella catarrhalis [2]) was < 0.125 µg/mL and the IC50 (Peptide deformylase) was 7 nM. The MIC (Streptococcus pneumoniae [3]) was < 0.25 µg/mL.
CC1(C)S[C@@H]2[C@H](NC(=O)[C@H](N)c3ccc(O)cc3)C(=O)N2[C@H]1C(=O)O.O=C(O)[C@H]1/C(=C/CO)O[C@@H]2CC(=O)N21 was tested, and the MIC90 (Haemophilus influenzae [4]) was 1 µg/mL, the MIC90 (Moraxella catarrhalis [5]) was 0.12 µg/mL and the MIC90 (Streptococcus pneumoniae [6]) was 1 µg/mL.
In the case of CC(C)(C)[C@H](NC(=O)[C@H](CC1CCCC1)CN(O)C=O)C(=O)c1cc(F)c(F)cc1N1CCN(CCO)CC1, the MIC (Haemophilus influenzae [1]) is reported as < 2 µg/mL, the MIC (Moraxella catarrhalis [2]) is reported as < 0.125 µg/mL and the IC50 (Peptide deformylase) is reported as 2 nM. For the same molecule, the MIC (Streptococcus pneumoniae [7]) was < 1 µg/mL.
For CC(C)(C)[C@H](NC(=O)[C@H](CC1CCCC1)CN(O)C=O)C(=O)c1ccc(N2CCN(CCN3CCOCC3)CC2)cc1, the MIC (Haemophilus influenzae [8]) was < 2 µg/mL, the MIC (Moraxella catarrhalis [2]) was < 0.125 µg/mL and the IC50 (Peptide deformylase) was 2 nM. For the same molecule, the MIC (Streptococcus pneumoniae [9]) was < 0.5 µg/mL.
CCCC[C@H](CN(O)C=O)C(=O)N[C@H](C(=O)c1ccc(N)cc1)C(C)(C)C showed an IC50 (Peptide deformylase) of 8 nM and an MIC (Staphylococcus capitis) of 12 µM (≈ 4.53 µg/mL).
With CC(C)(C)[C@H](NC(=O)[C@H](CC1CCCC1)CN(O)C=O)C(=O)c1cc(F)c(F)cc1N1CCC[C@H]1CO the MIC (Haemophilus influenzae [8]) was < 2 µg/mL, the MIC (Moraxella catarrhalis [2]) was < 0.125 µg/mL and the MIC (Streptococcus pneumoniae [10]) was 0.25 µg/mL (≈ 0.477 µM).
In the case of CCCC[C@H](CN(O)C=O)C(=O)N[C@H](C(=O)c1ccco1)C(C)(C)C, the IC50 (Peptide deformylase) is reported as 5 nM.
For CCCC[C@H](CN(O)C=O)C(=O)N[C@H](C(=O)c1ccc(O)cc1)C(C)(C)C, the IC50 (Peptide deformylase) was 8 nM.
CC(C)(C)[C@H](NC(=O)[C@H](CC1CCCC1)CN(O)C=O)C(=O)c1cc(F)c(F)cc1N1CCN(CCN2CCCC2)CC1 was tested, and the MIC (Haemophilus influenzae [11]) was < 4 µg/mL, the MIC (Moraxella catarrhalis [12]) was < 0.25 µg/mL and the IC50 (Peptide deformylase) was 2 nM. For the same molecule, the MIC (Streptococcus pneumoniae [9]) was < 0.5 µg/mL.
For CC(C)(C)[C@H](NC(=O)[C@H](CC1CCCC1)CN(O)C=O)C(=O)c1cc(F)c(F)cc1N1CCN(CCN2CCOCC2)CC1, the MIC (Haemophilus influenzae [13]) was < 4 µg/mL, the MIC (Moraxella catarrhalis [14]) was < 0.25 µg/mL and the IC50 (Peptide deformylase) was 2 nM. For the same molecule, the MIC (Streptococcus pneumoniae [15]) was < 1 µg/mL.
In the case of CC(C)(C)[C@H](NC(=O)[C@H](CC1CCCC1)CN(O)C=O)C(=O)c1ccc(N2CCC[C@H]2CO)c(F)c1, the MIC (Moraxella catarrhalis [2]) is reported as < 0.125 µg/mL, the IC50 (Peptide deformylase) is reported as 2 nM and the MIC (Streptococcus pneumoniae [10]) is reported as 0.25 µg/mL (≈ 0.494 µM). The MIC (Haemophilus influenzae [16]) was < 2 µg/mL.
For CC(C)(C)[C@H](NC(=O)[C@H](CC1CCCC1)CN(O)C=O)C(=O)c1ccc(N2CCOCC2)cc1, the MIC (Escherichia coli) was 12.5 µM (≈ 5.92 µg/mL), the MIC90 (Haemophilus influenzae [17]) was 4 µg/mL (≈ 8.45 µM) and the MIC (Moraxella catarrhalis [2]) was 0.125 µg/mL (≈ 0.264 µM). The MIC90 (Moraxella catarrhalis [18]) was 0.12 µg/mL (≈ 0.253 µM), the IC50 (Peptide deformylase) was 6 nM and 2 nM and the MIC (Staphylococcus capitis) was 1.5 µM (≈ 0.71 µg/mL). For the same molecule, the MIC (Streptococcus pneumoniae [9]) was < 0.5 µg/mL, the MIC90 (Streptococcus pneumoniae [19]) was < 2 µg/mL and the MIC (Haemophilus influenzae [20]) was < 1 µg/mL.
With CC(C)(C)[C@H](NC(=O)[C@H](CC1CCCC1)CN(O)C=O)C(=O)c1ccc(N2CCN(CCN3CCOCC3)CC2)c(F)c1 the MIC (Haemophilus influenzae [21]) was < 4 µg/mL, the MIC (Moraxella catarrhalis [2]) was 0.125 µg/mL (≈ 0.207 µM) and the IC50 (Peptide deformylase) was 6 nM. The MIC (Streptococcus pneumoniae [9]) was < 0.5 µg/mL.
CC(C)(C)[C@H](NC(=O)[C@H](CC1CCCC1)CN(O)C=O)C(=O)c1ccc(N2CCN(CCN3CCCC3)CC2)cc1 was tested, and the MIC (Haemophilus influenzae [8]) was < 2 µg/mL, the MIC (Moraxella catarrhalis [14]) was < 0.25 µg/mL and the IC50 (Peptide deformylase) was 3 nM. For the same molecule, the MIC (Streptococcus pneumoniae [22]) was < 0.5 µg/mL.
Work on CCCC[C@H](CN(O)C=O)C(=O)N[C@H](C(=O)c1ccc(C#N)cc1)C(C)(C)C yielded an MIC (Escherichia coli) of 6.25 µM (≈ 2.42 µg/mL), an IC50 (Peptide deformylase) of 7 nM and an MIC (Staphylococcus capitis) of 3.1 µM (≈ 1.2 µg/mL).
In the case of CCCC[C@H](CN(O)C=O)C(=O)N[C@H](C(=O)c1ccc(NC(=O)C(F)(F)F)cc1)C(C)(C)C, the IC50 (Peptide deformylase) is reported as 20 nM.
In the case of CCCC[C@H](CN(O)C=O)C(=O)N[C@H](C(=O)N(C)C)C(C)(C)C, the MIC90 (Moraxella catarrhalis [23]) is reported as 0.12 µg/mL (≈ 0.364 µM), the MIC90 (Streptococcus pneumoniae [24]) is reported as > 16 µg/mL and the MIC90 (Haemophilus influenzae [25]) is reported as 2 µg/mL (≈ 6.07 µM).
CCCC[C@H](CN(O)C=O)C(=O)N[C@H](C(C)=O)C(C)(C)C gave an MIC (Escherichia coli) of 25 µM (≈ 7.51 µg/mL) and an MIC (Staphylococcus capitis) of 100 µM (≈ 30 µg/mL).
O=C(O)c1cn(C2CC2)c2cc(N3CCNCC3)c(F)cc2c1=O [CIPROFLOXACIN] gave an MIC90 (Haemophilus influenzae [26]) of 0.015 µg/mL (≈ 0.0453 µM), an MIC90 (Moraxella catarrhalis [27]) of 0.06 µg/mL (≈ 0.181 µM) and an MIC90 (Streptococcus pneumoniae [28]) of 8 µg/mL (≈ 24.1 µM).
CC1(C)S[C@@H]2[C@H](NC(=O)Cc3ccccc3)C(=O)N2[C@H]1C(=O)[O-].[Na+] [PENICILLIN G SODIUM] showed an MIC90 (Streptococcus pneumoniae [29]) of 1 µg/mL.
